Test results taken from ChEMBL document CHEMBL1201862, “PubChem BioAssay data set” (2004).
Activity calls are given as the source filed them.

What was measured:
[1] = molecular target: T1, Caspase-3 (Homo sapiens, UniProt P42574); experiment: SAR Analysis of small molecule inhibitors of Sentrin-specific proteases (SENPs) using a Caspase-3 Selectivity assay. [Related pubchem assays (depositor defined):AID2540, AID2599, AID434973, AID489001]; assay type: functional
T1 sequence (P42574 whole entry): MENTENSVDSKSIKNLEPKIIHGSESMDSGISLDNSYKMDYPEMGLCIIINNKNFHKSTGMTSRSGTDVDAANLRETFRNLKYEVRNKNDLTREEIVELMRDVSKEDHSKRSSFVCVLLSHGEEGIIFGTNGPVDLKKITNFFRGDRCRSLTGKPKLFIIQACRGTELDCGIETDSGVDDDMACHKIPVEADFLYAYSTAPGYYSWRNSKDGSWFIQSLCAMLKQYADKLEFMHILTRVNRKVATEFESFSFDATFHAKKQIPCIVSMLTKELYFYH

[2] = molecular target: T2, Rac GTPase-activating protein 1 (Homo sapiens, UniProt Q9H0H5); experiment: blockers of MgcRacGAP-driven Rac1 GTP hydrolysis – biochemical, ADP Hunter fluorescence, primary and confirmatory, confirmation (AID 624330); assay type: functional
T2 sequence (Q9H0H5 whole entry): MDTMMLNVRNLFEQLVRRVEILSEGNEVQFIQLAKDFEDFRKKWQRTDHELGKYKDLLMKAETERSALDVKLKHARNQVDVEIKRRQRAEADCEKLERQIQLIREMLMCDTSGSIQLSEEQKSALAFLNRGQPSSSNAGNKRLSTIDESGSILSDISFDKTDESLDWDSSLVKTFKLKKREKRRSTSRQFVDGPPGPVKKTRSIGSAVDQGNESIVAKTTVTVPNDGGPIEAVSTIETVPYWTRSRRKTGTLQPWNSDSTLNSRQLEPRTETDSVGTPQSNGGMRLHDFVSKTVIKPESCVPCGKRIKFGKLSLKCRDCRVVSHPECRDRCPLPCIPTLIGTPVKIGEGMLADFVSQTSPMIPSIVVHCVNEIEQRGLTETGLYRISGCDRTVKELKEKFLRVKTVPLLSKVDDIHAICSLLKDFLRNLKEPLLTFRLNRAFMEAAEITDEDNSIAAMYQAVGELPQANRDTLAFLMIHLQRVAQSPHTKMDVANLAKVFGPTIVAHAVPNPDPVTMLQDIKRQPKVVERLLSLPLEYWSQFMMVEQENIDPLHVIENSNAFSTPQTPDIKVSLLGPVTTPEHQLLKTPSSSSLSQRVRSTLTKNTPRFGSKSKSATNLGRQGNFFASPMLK

[3] = molecular target: Sphingosine 1-phosphate receptor 1 (Homo sapiens, UniProt P21453); assay type: functional;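 further: Tango beta-arrestin reporter U2OS cells stimulated with S1P near its EC80; inhibitor potency meaning antagonism of receptor activation by the natural agonist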
[4] = molecular target: Beta-galactosidase (Escherichia coli, UniProt Q8VNN2); assay type: functional
[5] = molecular target: T3, Sphingosine 1-phosphate receptor 4 (Homo sapiens, UniProt O95977); experiment: Late stage fluorescence dose response cell-based screening assay for antagonists of the Sphingosine 1-Phosphate Receptor 4 (S1P4). [Related pubchem assays: 1524 (Confirmation screen (S1P4 antagonists).), 1510 (Primary screen (S1P4 antagonists).), 1853 (Summary AID (S1P4 antagonists).), 1692 (Dose response screen (S1P4 antagonists).)]; assay type: functional
T3 sequence (O95977 whole entry): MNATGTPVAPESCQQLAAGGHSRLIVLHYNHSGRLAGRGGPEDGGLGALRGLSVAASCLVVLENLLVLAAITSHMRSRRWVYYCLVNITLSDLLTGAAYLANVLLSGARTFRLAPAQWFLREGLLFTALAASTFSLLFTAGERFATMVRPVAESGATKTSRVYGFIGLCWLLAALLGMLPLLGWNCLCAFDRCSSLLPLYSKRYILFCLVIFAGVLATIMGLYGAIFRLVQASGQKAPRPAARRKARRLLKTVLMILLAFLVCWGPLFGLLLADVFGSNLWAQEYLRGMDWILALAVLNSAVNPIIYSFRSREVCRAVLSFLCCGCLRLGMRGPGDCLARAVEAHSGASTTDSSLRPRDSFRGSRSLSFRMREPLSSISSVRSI

[6] = molecular target: T4, Protein RecA (Mycobacterium tuberculosis, UniProt P9WHJ3); experiment: Fluorescence Cell-Free Homogeneous Dose Retest to Identify Inhibitors of RecA-Intein Splicing Activity. [Related pubchem assays (depositor defined):AID2097, AID2223, AID489010, AID492950]; assay type: functional
T4 sequence (P9WHJ3 whole entry): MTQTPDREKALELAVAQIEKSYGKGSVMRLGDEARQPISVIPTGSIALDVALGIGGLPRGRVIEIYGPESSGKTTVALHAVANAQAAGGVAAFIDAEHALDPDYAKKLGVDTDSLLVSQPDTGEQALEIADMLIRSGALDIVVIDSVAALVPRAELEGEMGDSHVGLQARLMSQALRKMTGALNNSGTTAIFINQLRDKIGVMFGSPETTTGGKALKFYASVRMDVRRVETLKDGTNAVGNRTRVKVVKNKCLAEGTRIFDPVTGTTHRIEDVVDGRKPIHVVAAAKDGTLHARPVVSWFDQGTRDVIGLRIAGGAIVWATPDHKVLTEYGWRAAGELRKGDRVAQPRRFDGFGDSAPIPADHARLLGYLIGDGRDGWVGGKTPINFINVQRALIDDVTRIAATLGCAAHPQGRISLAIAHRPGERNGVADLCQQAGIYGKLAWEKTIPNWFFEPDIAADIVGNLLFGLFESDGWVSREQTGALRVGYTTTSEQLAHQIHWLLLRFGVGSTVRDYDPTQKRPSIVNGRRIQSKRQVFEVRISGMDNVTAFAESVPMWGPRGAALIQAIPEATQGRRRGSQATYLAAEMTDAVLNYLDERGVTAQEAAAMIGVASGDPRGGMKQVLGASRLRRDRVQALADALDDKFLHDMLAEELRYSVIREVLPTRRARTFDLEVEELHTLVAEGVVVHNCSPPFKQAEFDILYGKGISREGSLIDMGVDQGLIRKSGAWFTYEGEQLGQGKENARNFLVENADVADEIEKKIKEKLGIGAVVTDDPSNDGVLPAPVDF

[7] = molecular target: ATP-dependent molecular chaperone HSP82 (Candida albicans (strain WO-1) (Yeast), UniProt C4YTQ8); experiment: steroid-induced GRE reporter decrease in yeast – S. cerevisiae, luminescence, Hsp90 inhibitor project, dose response (AID 2400); assay type: functional, cell-based;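 further: beta-galactosidase luminescence from glucocorticoid response element reporter as proxy for Hsp90 function; inhibitor potency where signal loss means Hsp90 inhibition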
Chain of ATP-dependent molecular chaperone HSP82 (C4YTQ8 whole entry): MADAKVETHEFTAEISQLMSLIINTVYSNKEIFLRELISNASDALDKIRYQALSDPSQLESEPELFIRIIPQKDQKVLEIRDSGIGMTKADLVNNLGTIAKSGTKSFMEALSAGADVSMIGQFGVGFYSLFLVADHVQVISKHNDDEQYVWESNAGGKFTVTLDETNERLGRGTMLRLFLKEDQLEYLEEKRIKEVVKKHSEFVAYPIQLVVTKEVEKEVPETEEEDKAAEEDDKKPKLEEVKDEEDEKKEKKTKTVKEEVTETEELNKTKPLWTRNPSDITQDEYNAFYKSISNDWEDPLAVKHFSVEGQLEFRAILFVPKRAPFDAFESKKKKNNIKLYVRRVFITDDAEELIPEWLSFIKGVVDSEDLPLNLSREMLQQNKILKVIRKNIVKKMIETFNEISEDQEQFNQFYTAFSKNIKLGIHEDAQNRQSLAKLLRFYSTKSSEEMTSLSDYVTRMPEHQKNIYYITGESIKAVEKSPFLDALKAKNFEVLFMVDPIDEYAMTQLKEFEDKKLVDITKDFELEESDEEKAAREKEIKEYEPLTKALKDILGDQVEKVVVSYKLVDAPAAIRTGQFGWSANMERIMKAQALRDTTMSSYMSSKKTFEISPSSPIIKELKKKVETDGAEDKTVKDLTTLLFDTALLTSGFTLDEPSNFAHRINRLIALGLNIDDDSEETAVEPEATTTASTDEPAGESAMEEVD

Chain of Beta-galactosidase (Q8VNN2 whole entry): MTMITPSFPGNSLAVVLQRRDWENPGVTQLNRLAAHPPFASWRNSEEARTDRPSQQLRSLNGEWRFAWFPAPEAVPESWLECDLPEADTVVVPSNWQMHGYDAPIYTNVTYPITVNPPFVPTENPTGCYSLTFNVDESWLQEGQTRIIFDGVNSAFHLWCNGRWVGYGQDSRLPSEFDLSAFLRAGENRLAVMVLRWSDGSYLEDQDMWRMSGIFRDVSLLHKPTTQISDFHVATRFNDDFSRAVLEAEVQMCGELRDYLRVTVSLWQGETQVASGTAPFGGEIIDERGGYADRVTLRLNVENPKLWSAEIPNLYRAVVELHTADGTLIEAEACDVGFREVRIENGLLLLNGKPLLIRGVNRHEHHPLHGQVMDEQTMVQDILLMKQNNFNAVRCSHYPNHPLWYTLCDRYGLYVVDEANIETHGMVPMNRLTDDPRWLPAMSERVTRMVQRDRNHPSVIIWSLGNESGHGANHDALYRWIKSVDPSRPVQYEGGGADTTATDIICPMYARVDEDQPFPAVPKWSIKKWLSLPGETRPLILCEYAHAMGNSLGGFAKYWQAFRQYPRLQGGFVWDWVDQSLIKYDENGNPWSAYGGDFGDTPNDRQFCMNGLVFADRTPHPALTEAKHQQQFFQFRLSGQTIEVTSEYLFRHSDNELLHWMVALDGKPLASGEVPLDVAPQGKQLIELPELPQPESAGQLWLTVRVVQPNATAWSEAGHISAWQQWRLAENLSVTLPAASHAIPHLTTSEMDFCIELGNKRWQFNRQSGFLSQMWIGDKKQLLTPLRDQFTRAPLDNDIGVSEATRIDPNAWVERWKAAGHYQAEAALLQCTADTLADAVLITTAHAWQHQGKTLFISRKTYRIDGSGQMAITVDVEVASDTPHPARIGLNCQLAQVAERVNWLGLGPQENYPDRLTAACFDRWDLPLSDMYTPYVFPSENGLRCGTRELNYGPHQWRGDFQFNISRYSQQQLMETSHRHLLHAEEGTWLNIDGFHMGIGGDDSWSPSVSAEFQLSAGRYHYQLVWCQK
Chain of Sphingosine 1-phosphate receptor 1 (P21453 whole entry): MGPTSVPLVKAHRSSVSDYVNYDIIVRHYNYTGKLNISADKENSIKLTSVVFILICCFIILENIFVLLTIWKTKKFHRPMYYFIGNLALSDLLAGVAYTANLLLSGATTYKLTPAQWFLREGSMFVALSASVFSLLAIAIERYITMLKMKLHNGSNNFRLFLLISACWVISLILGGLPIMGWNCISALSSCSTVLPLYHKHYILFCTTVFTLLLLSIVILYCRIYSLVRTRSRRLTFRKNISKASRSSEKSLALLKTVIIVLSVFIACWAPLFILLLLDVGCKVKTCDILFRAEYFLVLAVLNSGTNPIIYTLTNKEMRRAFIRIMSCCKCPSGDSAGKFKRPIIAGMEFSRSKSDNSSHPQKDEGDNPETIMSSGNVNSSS

## Oc1ccc(/C=N\Nc2cc(N3CCOCC3)nc(N3CCOCC3)n2)c(O)c1
[1]
  IC50: > 99 µM (inactive)
[2]
  IC50: 57.1 µM (active)

## COc1cc(NC(=O)Cn2ncc(Cl)c(Cl)c2=O)c(C)cc1[N+](=O)[O-]
[3]
  IC50: > 49.8 µM (not active)
[4]
  EC50: > 31.5 µM (inactive)
[5]
  IC50: 6.74 µM (not active)
[6]
  EC50: 8.7 µM (active)

## Cc1ccc(C)c(S(=O)(=O)N2CCN(Cc3ccc(O)c4ncccc34)CC2)c1
[7]
  EC50: > 160 µM (inactive)
